Reference: patent US9376424B2, “Methods for treating post traumatic stress disorder” (AZEVAN PHARMACEUTICALS, INC., priority 2010, dated 2016)

Legend:
resident male rats = experiment: Resident-Intruder Model of Stress and Aggression in Rats (neuroimaging); assay type: in vivo, rat; details: oral administration, intruder stimulus
Text: Resident-Intruder Model of Stress and Aggression in Rats. Neuroimaging is used to assess the blockade of stress/arousal with test compound compared to control. The effect of AVN251-HCl on functional circuitry was examined using the imaging method for awake rats. Additional details of the assay are described in Ferris et al. (2008).
Male rats in the company of a female cage mate will piloerect in the presence of a male intruder. This piloerection is a sign of stress and aggressive intent and is associated with activation of stress/arousal circuits in the brain. […] Resident male rats from six male:female pairs were imaged while fully awake. During a single imaging session, these males were treated with vehicle or AVN251-HCl (5 mg/kg).
The total volume of brain activation for resident males confronted with their mate alone, mate plus intruder, and mate plus intruder in the presence of AVN251-HCl can be viewed as 3D models. While there appears to be a general decrease in BOLD signal in major regions with AVN251-HCl treatment, sexual motivation, as assessed by the presentation of a novel receptive female, was unaffected by V1a receptor blockade.
Stress circuit activation in response to an intruder male is assessed by obtaining brain scans viewed from a caudal/dorsal perspective as translucent shells. The localization of activated voxels is mapped as 3D volumes of activation, which are composed of 10 subjects each. Once fully registered and segmented, the statistical responses for each subject are averaged on a voxel-by-voxel basis. Those averaged voxels exceeding a 2.0% threshold are shown in their appropriate spatial location. Functional images are acquired on awake rats at 4.7 T.
The 3D volumes of activation are composed from results obtained with 10 subjects in each condition. […] Particular olfactory systems measured included the anterior olfactory nucleus, olfactory tubercle, piriform cortex, n. laterial olfactory tract, and entrorhinal cortex. Particular dopaminergic systems measured included the prelimbic cortex, accumbens, ventral pallidum, medial dorsal thalamus, and ventral tegmentum.
Awake rats were imaged when presented with their mate+an intruder, a highly stressful stimulus.

V2 = V2 (Homo sapiens, UniProt P30518); experiment: V2 receptor inhibition data (Ki); assay type: binding; details: selectivity table
Sequence of V2 (P30518 whole entry): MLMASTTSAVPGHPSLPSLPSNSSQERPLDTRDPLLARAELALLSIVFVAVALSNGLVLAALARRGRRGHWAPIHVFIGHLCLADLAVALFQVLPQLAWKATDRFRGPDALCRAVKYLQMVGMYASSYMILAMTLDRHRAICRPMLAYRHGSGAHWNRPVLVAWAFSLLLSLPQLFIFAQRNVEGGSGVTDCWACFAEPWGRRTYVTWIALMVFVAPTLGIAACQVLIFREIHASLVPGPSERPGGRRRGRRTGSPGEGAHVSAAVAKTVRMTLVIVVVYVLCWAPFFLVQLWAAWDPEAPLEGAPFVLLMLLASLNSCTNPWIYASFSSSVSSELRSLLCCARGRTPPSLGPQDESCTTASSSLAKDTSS

V1b receptor = biological target: T1, V1b receptor (Homo sapiens, UniProt P47901); experiment: Human or rat vasopressin V1b cell-based receptor binding assay; details: selectivity table; read-out: inhibition data (Ki, nM), Receptor V1b
T1 construct: expressed in transfected cells; host or cells: CHO-K1 (ATCC), vector PCI-neo
T1 sequence (P47901 1-424): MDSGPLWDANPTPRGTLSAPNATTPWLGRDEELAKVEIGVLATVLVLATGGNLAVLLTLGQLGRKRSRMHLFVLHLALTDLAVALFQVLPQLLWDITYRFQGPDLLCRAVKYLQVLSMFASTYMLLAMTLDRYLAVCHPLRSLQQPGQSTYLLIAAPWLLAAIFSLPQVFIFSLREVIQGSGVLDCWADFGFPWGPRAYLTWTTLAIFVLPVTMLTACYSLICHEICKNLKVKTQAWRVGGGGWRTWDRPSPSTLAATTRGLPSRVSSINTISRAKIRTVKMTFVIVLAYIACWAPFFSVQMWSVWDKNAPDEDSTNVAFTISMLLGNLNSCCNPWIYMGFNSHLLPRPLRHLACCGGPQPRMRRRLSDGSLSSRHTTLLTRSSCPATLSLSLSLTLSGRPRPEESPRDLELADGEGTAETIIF
Text: Human vasopression V1b receptor-expressing cells. Human vasopressin receptor 1b (hV1b) cDNA (see, Lolait et al., “Extrapituitary expression of the rat V1b vasopressin receptor gene” Proc. Natl. Acad. Sci. USA. 92:6783-7 (1995); de Keyzer et al., “Cloning and characterization of the human V3(V1b) pituitary vasopressin receptor” FEBS Lett. 356:215-20 (1994); Sugimoto et al., “Molecular cloning and functional expression of a cDNA encoding the human V1b vasopressin receptor” J. Biol. Chem. 269:27088-92 (1994)) was inserted into a mammalian cell expression vector PCI-neo (Promega) at EcoR1 site. The recombinant plasmid carrying hV1b cDNA was identified from transformed E. Coli clones and used for the transfection of Chinese hamster ovary cell (CHO-K1, ATCC). Two micrograms of hV1b receptor DNA was introduced into 10^5 CHO cells cultured in 6-well plate, using Fugene-6 mediated transfection technique (Boehringer Mannheim). Twenty-four hrs post transfection, Cells were then cultured under selection of G-418 (0.25 mg/ml) supplemented to the culture medium. Three days later, limited dilution was carried out to obtain single cell clones in 96-well plates. […]
Human or rat vasopression V1b cell-based receptor binding assay. […] Samples were counted in a liquid scintillation counter (Beckman LS3801). IC50 and Ki values were calculated using Prism Curve fitting software. […]

C[C@@H](NC(=O)[C@@H](CC(=O)N1CCC(N2CCCCC2)CC1)N1C(=O)[C@@H](N2C(=O)OC[C@@H]2c2ccccc2)[C@H]1C=Cc1ccccc1)c1ccccc1 [Example 224, 2(R)-[[4-(Piperidinyl)piperidinyl]carbonylmethyl]-2-[3(S)-(4(S)-phenyloxazolidin-2-on-3-yl)-4(R)-(2-styryl)azetidin-2-on-1-yl]acetic acid N—[(R)-α-methylbenzyl]amide]
stress and aggressive motivation compared to controls (resident male rats): blocked stress and aggressive motivation | Ki (V2): > 1000 nM | Ki (V1b receptor): > 1000 nM
